Results reported in patent US12729377B2, “RNAi agents and compositions for inhibiting expression of angiopoietin-like 3 (ANGPTL3), and methods of use” (Arrowhead Pharmaceuticals, Inc., priority 2017, dated 2026).
In the oligonucleotide strings, read from the 5' end, every base follows the letter of its sugar. An asterisk marks phosphorothioate; unmarked linkages are phosphodiester. Other units and linkages are bracketed, terminal groups are in braces. A string of capitals states the bases alone. {NAG37} = tridentate N-acetyl-galactosamine targeting ligand, structure (NAG37)s; [invAb] = inverted abasic unit; m = 2'-O-methyl; f = 2'-fluoro

Tests used:
[1] = tested on: ANGPTL3 gene; assay: Example 11: dose response, serum LDL in mice; format: in vivo, C57bl/6 mice
Protocol: To assess the dose response of ANGPTL3 RNAi agent AD05488, six- to eight-week-old female C57bl/6 mice were used. Pre-dose serum samples were taken at day −1 after a four hour fast. At day 1, each mouse was given a single subcutaneous administration of 200 μl containing the respective mg/kg dose of an ANGPTL3 RNAi agent in D5W (dextrose in 5% water), or control (D5W) with no RNAi agent, according to the dosing groups recited in Table 53:
The RNAi agent tested (AD05488) included a modified sequence and an N-acetyl-galactosamine-containing targeting ligand conjugated to the 5′ terminal end of the sense strand. (See Tables 3, 4, and 5 for modified sequences and targeting ligand structures). The injections were performed between the skin and muscle (i.e. subcutaneous injections) into the loose skin over the neck and shoulder area. Four (4) mice in each group were tested (n=4). Serum was collected on days 8, 15, 22, and 29. Mice were fasted for four hours prior to each collection. ANGPTL3 protein levels in serum were measured by ELISA assay (R&D Systems), according to the manufacturer's recommendations. Triglycerides, total cholesterol, high-density lipoprotein (HDL), and low-density lipoprotein (LDL) in serum were measured on a Cobas® Integra 400 (Roche Diagnostics), according to the manufacturer's recommendations.
The ANGPTL3 protein levels, triglyceride levels, total cholesterol levels, HDL levels, and LDL levels for each animal were normalized. For normalization, the level of ANGPTL3 protein, triglyceride, HDL, and total cholesterol, respectively, for each animal at a time point, was divided by the pre-treatment level of expression in that animal (in this case at day −1) to determine the ratio of expression “normalized to pre-treatment.” Expression at a specific time point was then normalized to the D5W control group by dividing the “normalized to pre-treatment” ratio for an individual animal by the mean “normalized to pretreatment” ratio of all mice in the D5W control group.

[2] = tested on: ANGPTL3 gene; assay: Example 14: RNAi agent and statin, serum LDL in LDLR knockout mice; format: in vivo, LDLR KO mice
Text: To evaluate the effect of co-administration of RNAi agents and statins in a disease model, LDLR KO mice were commercially obtained (The Jackson Laboratory). For three weeks prior to the onset of the study, forty-one (41) male 7 to 8 week old LDLR KO mice were placed on a high fat (“western”) diet (Teklad Custom Diets TD.88137), and remained on that diet throughout the duration of the study. Pre-dose serum samples were taken on study Day 1 after a four hour fast. The dosing regimen for the study is recited in the following Table 72:
• Mice were treated at 40 mg/kg for the first 11 days, then switched to 20 mg/kg thereafter.
The vehicle used for the oral gavage in the study was a 1:1 mixture of Ora-Plus®: Ora-Sweet® solution, which were acquired commercially. For the preparation of the atorvastatin oral gavage administrations, the respective desired dose of atorvastatin was first dissolved in sterile water (0.3 mL water per 1 mL of desired formulation) and vortexed until smooth, followed by the addition of a mixture of 1:1 Ora-Plus®: Ora-Sweet® solution (0.7 mL vehicle per 1 mL of desired formulation) and vortexed. On day 1 and for each day thereafter an oral gavage dose was administered for each of the Groups except for Group 2. On Day 23, Groups 1, 2, 3, and 4 received a single subcutaneous administration of 2.5 mg/kg dose ([…] solution) of an ANGPTL3 RNAi agent in D5W (dextrose in 5% water), or vehicle control (D5W) with no RNAi agent.
The RNAi agent tested (AD05488) included a modified sequence and an N-acetyl-galactosamine-containing targeting ligand conjugated to the 5′ terminal end of the sense strand. (See Tables 3, 4, and 5 for modified sequences and targeting ligand structures). The injections were performed between the skin and muscle (i.e. subcutaneous injections) into the loose skin over the neck and shoulder area. Serum was collected on days 8, 15, 22 (pre-RNAi agent injection), 29, 36, 43, and 50. LDLR KO mice were fasted for four hours prior to each collection.
ANGPTL3 protein levels in serum were measured by ELISA assay (R&D Systems), according to the manufacturer's recommendations. Among other biomarkers, triglycerides, total cholesterol, and low-density lipoprotein (LDL) in serum were measured on a Cobas® Integra 400 (Roche Diagnostics), according to the manufacturer's recommendations.
The ANGPTL3 protein levels, triglyceride levels, total cholesterol levels, HDL levels, and LDL levels for each animal were normalized. For normalization, respective levels of ANGPTL3 protein, TG, total cholesterol, or LDL for each animal at a time point was divided by the pre-treatment level of expression in that animal (in this case pre-dose levels on Day 1) to determine the ratio of expression “normalized to pre-treatment.” Data from the study set forth in this Example are shown in the following Tables 73-76: […]

AD05488: RNAi agent duplex: antisense AM07235-AS, sense AM07234-SS (antisense mU*fA*mC*fUmGfAmUfCmAfAmAfUmAfUmGfUmUfGmAfG*mC; sense {NAG37}*[invAb]*mGmCmUmCmAmAmCmAfUfAfUmUmUmGmAmUmCmAmGmUmA*[invAb])
Avg LDL Normalized to Pre-Treatment and Control ([1]; 0.05 mg/kg single sc day 1, Day 8): 0.798
Avg LDL Normalized to Pre-Treatment and Control ([1]; 0.05 mg/kg single sc day 1, Day 15): 1.147
Avg LDL Normalized to Pre-Treatment and Control ([1]; 0.05 mg/kg single sc day 1, Day 22): 0.772
Avg LDL Normalized to Pre-Treatment and Control ([1]; 0.05 mg/kg single sc day 1, Day 29): 0.822
Avg LDL Normalized to Pre-Treatment and Control ([1]; 0.1 mg/kg single sc day 1, Day 8): 0.878
Avg LDL Normalized to Pre-Treatment and Control ([1]; 0.1 mg/kg single sc day 1, Day 15): 1.153
Avg LDL Normalized to Pre-Treatment and Control ([1]; 0.1 mg/kg single sc day 1, Day 22): 0.732
Avg LDL Normalized to Pre-Treatment and Control ([1]; 0.1 mg/kg single sc day 1, Day 29): 0.845
Avg LDL Normalized to Pre-Treatment and Control ([1]; 0.5 mg/kg single sc day 1, Day 8): 0.816
Avg LDL Normalized to Pre-Treatment and Control ([1]; 0.5 mg/kg single sc day 1, Day 15): 1.137
Avg LDL Normalized to Pre-Treatment and Control ([1]; 0.5 mg/kg single sc day 1, Day 22): 0.866
Avg LDL Normalized to Pre-Treatment and Control ([1]; 0.5 mg/kg single sc day 1, Day 29): 0.896
Avg LDL Normalized to Pre-Treatment and Control ([1]; 1.0 mg/kg single sc day 1, Day 8): 0.760
Avg LDL Normalized to Pre-Treatment and Control ([1]; 1.0 mg/kg single sc day 1, Day 15): 1.145
Avg LDL Normalized to Pre-Treatment and Control ([1]; 1.0 mg/kg single sc day 1, Day 22): 0.993
Avg LDL Normalized to Pre-Treatment and Control ([1]; 1.0 mg/kg single sc day 1, Day 29): 1.123
Avg LDL Normalized to Pre-Treatment and Control ([1]; 2.5 mg/kg single sc day 1, Day 8): 0.805
Avg LDL Normalized to Pre-Treatment and Control ([1]; 2.5 mg/kg single sc day 1, Day 15): 1.185
Avg LDL Normalized to Pre-Treatment and Control ([1]; 2.5 mg/kg single sc day 1, Day 22): 0.915
Avg LDL Normalized to Pre-Treatment and Control ([1]; 2.5 mg/kg single sc day 1, Day 29): 0.814
Avg LDL Normalized to Pre-Treatment and Control ([1]; 5.0 mg/kg single sc day 1, Day 8): 0.802
Avg LDL Normalized to Pre-Treatment and Control ([1]; 5.0 mg/kg single sc day 1, Day 15): 1.170
Avg LDL Normalized to Pre-Treatment and Control ([1]; 5.0 mg/kg single sc day 1, Day 22): 0.909
Avg LDL Normalized to Pre-Treatment and Control ([1]; 5.0 mg/kg single sc day 1, Day 29): 0.932
Avg LDL normalized to pre-treatment ([2]; Group 2: no gavage, 2.5 mg/kg AD05488 SC on day 23, Day 8 (pre-RNAi agent injection)): 0.893
Avg LDL normalized to pre-treatment ([2]; Group 2: no gavage, 2.5 mg/kg AD05488 SC on day 23, Day 15 (pre-RNAi agent injection)): 1.051
Avg LDL normalized to pre-treatment ([2]; Group 2: no gavage, 2.5 mg/kg AD05488 SC on day 23, Day 22 (pre-RNAi agent injection)): 1.113
Avg LDL normalized to pre-treatment ([2]; Group 2: no gavage, 2.5 mg/kg AD05488 SC on day 23, Day 29): 0.653
Avg LDL normalized to pre-treatment ([2]; Group 2: no gavage, 2.5 mg/kg AD05488 SC on day 23, Day 36): 0.492
Avg LDL normalized to pre-treatment ([2]; Group 2: no gavage, 2.5 mg/kg AD05488 SC on day 23, Day 43): 0.443
Avg LDL normalized to pre-treatment ([2]; Group 2: no gavage, 2.5 mg/kg AD05488 SC on day 23, Day 50): 0.480
Avg LDL normalized to pre-treatment ([2]; Group 3: 10 mg/kg daily oral gavage atorvastatin, 2.5 mg/kg AD05488 on day 23, Day 8 (pre-RNAi agent injection)): 0.692
Avg LDL normalized to pre-treatment ([2]; Group 3: 10 mg/kg daily oral gavage atorvastatin, 2.5 mg/kg AD05488 on day 23, Day 15 (pre-RNAi agent injection)): 0.537
Avg LDL normalized to pre-treatment ([2]; Group 3: 10 mg/kg daily oral gavage atorvastatin, 2.5 mg/kg AD05488 on day 23, Day 22 (pre-RNAi agent injection)): 0.659
Avg LDL normalized to pre-treatment ([2]; Group 3: 10 mg/kg daily oral gavage atorvastatin, 2.5 mg/kg AD05488 on day 23, Day 29): 0.422
Avg LDL normalized to pre-treatment ([2]; Group 3: 10 mg/kg daily oral gavage atorvastatin, 2.5 mg/kg AD05488 on day 23, Day 36): 0.312
Avg LDL normalized to pre-treatment ([2]; Group 3: 10 mg/kg daily oral gavage atorvastatin, 2.5 mg/kg AD05488 on day 23, Day 43): 0.264
Avg LDL normalized to pre-treatment ([2]; Group 3: 10 mg/kg daily oral gavage atorvastatin, 2.5 mg/kg AD05488 on day 23, Day 50): 0.256
Avg LDL normalized to pre-treatment ([2]; Group 4: 20 mg/kg* daily oral gavage atorvastatin (40 mg/kg first 11 days), 2.5 mg/kg AD05488 on day 23, Day 8 (pre-RNAi agent injection)): 0.572
Avg LDL normalized to pre-treatment ([2]; Group 4: 20 mg/kg* daily oral gavage atorvastatin (40 mg/kg first 11 days), 2.5 mg/kg AD05488 on day 23, Day 15 (pre-RNAi agent injection)): 0.515
Avg LDL normalized to pre-treatment ([2]; Group 4: 20 mg/kg* daily oral gavage atorvastatin (40 mg/kg first 11 days), 2.5 mg/kg AD05488 on day 23, Day 22 (pre-RNAi agent injection)): 0.755
Avg LDL normalized to pre-treatment ([2]; Group 4: 20 mg/kg* daily oral gavage atorvastatin (40 mg/kg first 11 days), 2.5 mg/kg AD05488 on day 23, Day 29): 0.434
Avg LDL normalized to pre-treatment ([2]; Group 4: 20 mg/kg* daily oral gavage atorvastatin (40 mg/kg first 11 days), 2.5 mg/kg AD05488 on day 23, Day 36): 0.240
Avg LDL normalized to pre-treatment ([2]; Group 4: 20 mg/kg* daily oral gavage atorvastatin (40 mg/kg first 11 days), 2.5 mg/kg AD05488 on day 23, Day 43): 0.217
Avg LDL normalized to pre-treatment ([2]; Group 4: 20 mg/kg* daily oral gavage atorvastatin (40 mg/kg first 11 days), 2.5 mg/kg AD05488 on day 23, Day 50): 0.242
total reductions in LDL ([2]; co-administration of atorvastatin and RNAi agent (Groups 3 and 4), LDLR KO mice on high fat diet): ~ 80%
